Here are results for one compound from US20190136188A1, “4HPR AND ITS USE IN THE CULTURING OF HEMATOPOIETIC STEM CELLS” (UNIVERSITY HEALTH NETWORK, priority 2016, published 2019).

The test system of experiment [1] is CD34+CD38- (stem) and CD34+CD38+ (prog) cells. The experiment can be described thus: LC3II immunofluorescence with and without Baflomycin A1 (autophagy). It counts as cell-based, human. The note with it: day 2, 2 uM 4HPR, in the presence of BAF; stem vs prog. The protocol:
(A) Representative mmunofluorescence images taken by confocal microscopy for DAPI (blue) and LC3II staining (green) for CD34+CD38− cells (stem) following 2 days of treatment with DMSO control or 2 uM 4HPR with and without the autophagy inhibitor baflomycin A1 (BAF) to assay for basal autophagy and autophagic flux. (B) Quantitation of LC3II foci area as a percentage of total cell area for stem and prog (CD34+38+) cells from three independent CB using R and Image J software. (C) LCII foci area is increased with 4HPR treatment relative to control in the presence of BAF only in stem populations and not Prog populations. (D) Representative flow cytometry histogram plot of cyto-ID fluorescence intensity of control (black) and 4HPR (green) treated stem cells to assay for autophagic flux. Lower mean fluorescence intensity (MFI) indicates more turnover of autophagosomes and thus increased autophagic flux. […] (F) Cytokine withdrawal for 3 hours activates autophagic flux in CB stem cells to similar levels as 2 uM 4HPR as assayed by cyto-ID flow cytometry at day 2 post-treatment (n=3).
We hypothesize that such selective enhancement of CFC cloning efficiency with 4HPR treatment is a result of activating autophagy in HSC in human CB. Warr et all had previously shown that mouse HSC, but not comitted progenitors activate autophagy under stress stimuli. […]

Experiment [2] concerns lineage-depleted CB (lin-CB) cells. The experiment can be described thus: Dose titration of 4HPR, cell viability. Format: cell-based. The note with it: Homo sapiens, 72 h, 3 days post-treatment, read-out: concentration giving half maximal cell viability compared to vehicle control. The protocol:
(A) Dose response of varying [4HPR] in CB at day 3 post-treatment showing 2 uM 4HPR gives the relative half maximal number of viable cells compared to control. All experiments following are at this 4HPR concentration unless otherwise indicated. […] (C) LC/MS was used to profile the ceramide (Cer), dihydroceramide (dhCer), sphingosine (sph), dihydrosphingosine (dhSph), S1P and dihydro-S1P (dhS1P) levels in lin− CB cells cultured for 8 days with control or 4HPR (n=2). […] (D) HSC, MPP, or GMP were sorted into methylcellulose for CFC assays in the presence of control or 4HPR and colonies were blindly scored following 10-11 days for (D) colonies/100 cells and ((E) colony distribution are shown (n=7). (F) Flow cytometry for erythroid (GlyA+) and monocytic (CD14+) markers in live cells from pooled CFC colonies were scored (n=6). (F) Relative number of colonies from CFC assays comparing the effect of 4HPR or ATRA (n=3) on sorted HSC, MPP or GMP.
However, the functional consequence of 4HPR treatment on human cord blood primitive cells is unknown. […]

The test system of another experiment is DEGS1. The note with it: prolong exposure at micromolar concentrations in vitro; cited from earlier work.

Each structure is given as a SMILES string.

With `CC1=C(/C=C/C(C)=C/C=C/C(C)=C/C(=O)Nc2ccc(O)cc2)C(C)(C)CCC1` [4HPR, N-(4hydroxyphenyl)retinamide], in experiment [1], the “LC3II foci area relative to ctrl (upregulation of autophagy)” value is recorded as “only 4HPR-treated stem cells, but not prog cells exhibit an upregulation of autophagy”. In addition, in experiment [2], the IC50 is 2 µM. For the same compound, the DEGS1 activity result in the experiment with DEGS1 was “irreversibly inhibits DEGS1 activity”.
